From patent US11066400B2, “Compounds for the treatment of cancer” (Hoffmann-La Roche Inc., priority 2015, dated 2021)

How the values were obtained:
[1] = test system: FoxM1_ΔVIIa / FoxM1_FL mRNA (FoxM1 gene splicing); test: Monitoring expression levels of FoxM1 splice variants using real-time quantitative PCR; format: cell-based; settings: Fibroblast; human fibroblasts, 24 hours, RT-qPCR, Hill fit of concentration dependence curves
Experimental: Human fibroblasts were plated at 10,000 cells/well in 200 μl DMEM with GlutaMAX and 10% FBS in 96-well plates in a cell culture incubator (37° C., 5% CO2, 100% relative humidity). Cells were then treated with compounds at different concentrations (0.1-300 nM, each in 0.5% DMSO) in triplicate for 24 hours. RNA extraction was performed as per instructions mentioned in the Ambion® Cells-to-CT™ Kits from Applied Biosystems®. RNA samples were frozen at −20° C. until further analysis. Relative expression levels of full-length FoxM1 (FoxM1_FL) or FoxM1 lacking exon VIIa (FoxM1_ΔVIIa) with GAPDH for internal control, was measured using one-step multiplex reverse transcription-polymerase chain reaction (RT-PCR). TaqMan® FAM probes were used for relative quantitation of FoxM1_FL or FoxM1_ΔVIIa expression levels and TaqMan® VIC probes were used for relative quantitation of human GAPDH levels. The fidelity of the amplification methods was determined using the ΔΔCt relative quantification method for quantitative PCR.
To investigate an effect on splicing of FoxM1, human fibroblasts were treated for 24 hours with compounds of the present invention in dose response, and analysed by RT-qPCR for presence of mRNA including (FoxM1_FL) or excluding the exon VIIa (FoxM1_ΔVIIa). […] Correspondingly, the mRNAs for FoxM1_ΔVIIa declined. […] The resulting concentration dependence curves of the FoxM1_ΔVIIa splice variant were fitted to a Hill binding equation to yield IC50 values that are described in Table 1. […] Taken together, the data underline a splicing modifying activity in the FoxM1 gene.

SMN protein = settings: taken from Activity Tables of WO 2014/028459, WO 2014/116845, WO 2015/017589; cited from earlier work

CN(c1ccc(-c2ccc(C#N)cc2O)nn1)C1CC(C)(C)NC(C)(C)C1 [Compound 1, 3-hydroxy-4-(6-(methyl(2,2,6,6-tetramethylpiperidin-4-yl)amino)pyridazin-3-yl)benzonitrile]
IC50 [1]: 0.041 µM

CN(c1ccc(-c2ccc(-c3cn[nH]c3)cc2O)nn1)C1CC(C)(C)NC(C)(C)C1 [Compound 2, 5-(1H-pyrazol-4-yl)-2-(6-(methyl(2,2,6,6-tetramethylpiperidin-4-yl)amino)pyridazin-3-yl)phenol]
IC50 [1]: 0.0009 µM

CN(c1ccc(-c2ccc(-c3cnn(C)c3)cc2O)nn1)C1CC(C)(C)NC(C)(C)C1 [Compound 3, 2-(6-(methyl-(2,2,6,6-tetramethylpiperidin-4-yl)amino)pyridazin-3-yl)-5-(1-methyl-1H-pyrazol-4-yl)phenol]
IC50 [1]: 0.0098 µM

CC1(C)CC(Oc2ccc(-c3ccc(-c4cn[nH]c4)cc3O)nn2)CC(C)(C)N1 [Compound 4]
IC50 [1]: 0.017 µM

CC1(C)CC(Oc2ccc(-c3ccc(-n4cccn4)cc3O)nn2)CC(C)(C)N1 [Compound 5]
IC50 [1]: 0.278 µM

CN(c1ccc(-c2ccc(-c3ccc(=O)n(C)c3)cc2O)nn1)C1CC(C)(C)NC(C)(C)C1 [Compound 7, 5-(3-hydroxy-4-(6-(methyl-(2,2,6,6-tetramethylpiperidin-4-yl)amino)pyridazin-3-yl)phenyl)-1-methylpyridin-2(1H)-one]
IC50 [1]: 0.167 µM

CN(c1ccc(-c2cc3ccccc3cc2O)nn1)C1CC(C)(C)NC(C)(C)C1 [Compound 8, 3-(6-(methyl(2,2,6,6-tetramethylpiperidin-4-yl)amino)pyridazin-3-yl)naphthalen-2-ol]
IC50 [1]: 0.0037 µM

CN(c1ccc(-c2cc3ccc(O)cc3cc2O)nn1)C1CC(C)(C)NC(C)(C)C1 [Compound 9, 3-(6-(methyl-(2,2,6,6-tetramethylpiperidin-4-yl)amino)pyridazin-3-yl)naphthalene-2,7-diol]
IC50 [1]: 0.0007 µM

COc1ccc2cc(-c3ccc(N(C)C4CC(C)(C)NC(C)(C)C4)nn3)c(O)cc2c1 [Compound 11, 7-methoxy-3-(6-(methyl(2,2,6,6-tetramethylpiperidin-4-yl)amino)pyridazin-3-yl)naphthalen-2-ol]
IC50 [1]: 0.0008 µM

CN(c1nnc(-c2ccc(-c3cn[nH]c3)cc2Cl)s1)C1CC(C)(C)NC(C)(C)C1 [Compound 12, 5-(2-Chloro-4-(1H-pyrazol-4-yl)phenyl)-N-methyl-N-(2,2,6,6-tetramethylpiperidin-4-yl)-1,3,4-thiadiazol-2-amine]
EC50 (SMN protein): 0.034 µM
IC50 [1]: 0.265 µM

CN(c1nnc(-c2ccc(-c3ccn(C)c(=O)c3)cc2Cl)s1)C1CC(C)(C)NC(C)(C)C1 [Compound 13, 4-(3-chloro-4-(5-(methyl(2,2,6,6-tetramethylpiperidin-4-yl)amino)-1,3,4-thiadiazol-2-yl)phenyl)-1-methylpyridin-2(1H)-one]
EC50 (SMN protein): 0.05 µM
IC50 [1]: 0.345 µM

CN(c1nnc(-c2cc(F)c(-c3ccn[nH]3)cc2F)s1)C1CC(C)(C)NC(C)(C)C1 [Compound 14, 5-(2,5-difluoro-4-(1H-pyrazol-5-yl)phenyl)-N-methyl-N-(2,2,6,6-tetramethylpiperidin-4-yl)-1,3,4-thiadiazol-2-amine]
EC50 (SMN protein): 0.085 µM
IC50 [1]: 0.144 µM
